Source: patent publication US4785008A, “N-substituted 2-amino-thiazoles, process for their preparation and their therapeutic application” (Laboratoires Chauvin-Blache, priority 1985, dated 1988)

What was measured:
[1] = system: leukocyte infiltration into the aqueous humour; conditions: recent experimental studies; cited from earlier work
[2] = system: prostanoid pathways (thromboxane B2) in rabbit platelets; test: Inhibition of the metabolism of [14C]arachidonate in rabbit platelets (disappearance of TXB2); type: cell-based; conditions: Oryctolagus cuniculus, Platelet
Protocol: 1.2--Inhibition of the metabolism of [^14 C]arachidonate in rabbit platelets
12 ml of blood are withdrawn nitracardially into ACD (anticoagulant consisting of an aqueous solution containing 0.27 g of citric acid, 0.5 g of disodium citrate and 0.02 g of glucose for 20 ml of water) in a proportion of 1 volume of ACD for 6 volumes of blood. The mixture is centrifuged (10 minutes, 200×g, 20° C.), and the supernatent (PRP) collected and centrifuged again (15 minutes, 1500×g, 20° C.). The platelet pellet is washed in buffer I [NaCl, 8 g/l; Tris, 1.21 g/l; KCl, 0.2 g/l; gelatin, 2.5 g/l; this mixture is heated to 90° C. to dissolve the gelatin, and then glucose, 1 g/l, and ethylene glycol bis(β-aminoethyl ether) N,N,N',N'-tetraacetic acid or EGTA, 0.075 g/l, are added]. The suspension is centrifuged (15 minutes, 1500×g, 20° C.) and the pellet taken up in buffer II (NaCl, 8 g/l; Tris, 1.21 g/l; KCl, 0.2 g/l; CaCl2, 0.145 g/l; MgCl2, 0.2 g/l; gelatin, 2.5 g/l; the mixture is brought to 90° C., glucose, 1 g/l, is added and the pH is adjusted to 7.4 with 0.1N HCl).
The platelet suspension (0.4 ml/tube) is preincubated for 10 minutes at 37° C., either with 10 μl of DMSO (control), or with varied concentrations of test compounds dissolved in 10 μl of DMSO.
The incubation is carried out in the presence of [^14 C]arachidonate (1 μg, 0.2 μCi) distributed in 0.1 ml of buffer II, and the incubation is then blocked after 15 minutes with 50 μl of citric acid and 250 μl of saturated NaCl.
After extraction with ethyl acetate, the metabolites of [^14 C]arachidonate are separated by thin layer chromatography and quantified using a radio-scanner.
The percentage inhibition of the prostanoid pathways is estimated by measuring the disappearance of thromboxane B2 (TXB2) in terms of the concentration of each compound.
Results corresponding to 50 μM and 100 μM of compounds of formula I are given by way of example in Table II.

[3] = system: lipoxygenase of circulating human leukocytes (PMNs); test: Inhibition of the lipoxygenase of circulating human leukocytes (PMNs), by radioimmunoassay of LTC4; type: cell-based; conditions: Leukocyte, 8 min, calcium ionophore A23187 (0.25 μM), 8 minutes at 37° C.
Protocol: 1.1--Inhibition of the lipoxygenase of circulating human leukocytes (PMNs), by radioimmunoassay of LTC4 Methods Heparinized human blood is sedimented for 1 hour at 37° C. in sterile saline solution containing 4.5% of Dextran T 500. The upper, leukocyte-rich phase, is collected, deposited on Ficoll-Paque (7:3 v/v) and then centrifuged (20 minutes, 400×g, 4° C.). The centrifugation pellet is treated with 0.75% strength NH4 Cl to lyse the red cells. After centrifugation (20 minutes, 400×g, 4° C.), supernatent is removed and the pellet is resuspended in Dulbecco's PBS buffer containing 1 mM calcium chloride. […] The incubation is blocked by adding one volume of ice-cold water, and the suspension is centrifuged (15 minutes, 1500×g, 4° C.). Aliquots of the supernatent are then subjected to radioimmunoassay (New England Nuclear Kit). The percentage inhibition of the 5-lipoxygenase pathway is measured in terms of the concentration of each compound. From these curves, the concentration which 50% inhibits LTC4 tracer formation (IC50) is deduced.

[4] = system: protein influx into the anterior chamber of the eye; test: Inhibition of protein influx into the anterior chamber of the eye after corneal paracentesis; type: in vivo, albino New Zealand rabbits; conditions: rabbit eye
Protocol: Anti-inflammatory activity measured by the inhibition of protein influx into the anterior chamber of the eye after corneal paracentesis. […] The effect of various concentrations of each compound is measured on 6 eyes of albino New Zealand rabbits.

[5] = Acute toxicity (LD50) in rats; conditions: rat, in vivo, 14 days of observation, with 5% confidence interval
Protocol: The rats used are of Wistar strain of average weight 150 g.
The LD50 is determined after 14 days of observation.
The results below give the LD50 values for the compound 3 of the invention, together with the 5% confidence interval.

IC50 [3] [µM] | SMILES | inhibition at 50 µM [2] [%] | inhibition at 100 µM [2] [%] | further results
– | COc1ccc2c(c1)c(CC(=O)O)c(C)n2C(=O)c1ccc(Cl)cc1 [Indomethacin] | – | – | leukocyte infiltration into the aqueous humour [1]: increases the leukocyte infiltration into the aqueous humour
1.2 | Oc1ccccc1Nc1nccs1 [Compound 1] | 34 | 91 | –
0.25 | Cc1ccc(O)c(Nc2nccs2)c1 [Compound 4] | 68 | – | –
1.6 | CC(C)(C)c1ccc(Nc2nccs2)c(O)c1 [Compound 5] | 76 | – | –
0.3 | Oc1ccc(Cl)cc1Nc1nccs1 [Compound 2] | 100 | 100 | –
0.2 | Cc1cc(C)c(O)c(Nc2nccs2)c1 [Compound 6] | 70 | – | –
– | Oc1cccnc1Nc1nccs1 [Compound 7] | 36 | 36 | –

SMILES | IC50 [3] [µM] | inhibition at 50 µM [2] [%] | inhibition at 100 µM [2] [%] | further results
Cc1ccc(Nc2nccs2)c(O)c1.Cl [Compound 3, 2-(2-hydroxy-4-methylphenyl)aminothiazole hydrochloride] | 0.33 | 100 | 100 | Inhibition (%) of protein influx into the anterior chamber of the eye after corneal paracentesis ([4]; 0.1 mg/100 ml): 20%; Inhibition (%) of protein influx into the anterior chamber of the eye after corneal paracentesis ([4]; 0.5 mg/100 ml): 35%; Inhibition (%) of protein influx into the anterior chamber of the eye after corneal paracentesis ([4]; 1 mg/100 ml): 50%; LD50 at 336 h ([5]; iv, female rat): 51 ± 2 mg/kg; LD50 at 336 h ([5]; iv, male rat): 51 ± 2 mg/kg; LD50 at 336 h ([5]; po, female rat): 2350 ± 90 mg/kg; LD50 at 336 h ([5]; po, male rat): 2950 ± 96 mg/kg
